Experiment [1] concerns chimeric human/mouse MHC class II molecules. It is filed as binding.
Experiment [2] concerns chimeric MHC class II molecules on splenic B cells. Type of experiment: cell-based, mouse. The conditions noted are these: overnight incubation of splenic B cells with recombinant IL-4; data not shown.

Take “OVA (323-339): a peptide that does not bind to DR4Dw4 (ISQAVHAAHAEINEAGR; UniProt P01012 324-340, looked up, fragment)”: in experiment [1], the “binding to chimeric MHC class II molecules” value is reported as “Binding was not observed”.

For “myelin basic protein (90-102): DR-restricted synthetic peptide (HLIRLFSRDAPGR; UniProt P02686 90-102, looked up, fragment)”, the “binding to chimeric MHC class II molecules” value in experiment [1] is on record as “Specific binding was also observed”.

B1: recombinant IL-4: recombinant IL-4 (protein, UniProt P07750 21-140, looked up)
Interleukin-4: HIHGCDKNHLREIIGILNEVTGEGTPCTEMDVPNVLTATKNTTESELVCRASKVLRIFYLKHGKTPCLKKNSSVLMELQRLFRAFRCLDSSISCTMNESKSTSLKDFLESLKSIMQMDYS
For the molecule B1, the “cell surface level of chimeric MHC class II molecules” value in experiment [2] is given as “increased by three- to fourfold”.
